These results are taken from patent publication US8143025B2, “Antibodies against vascular endothelial growth factor receptor-1” (ImClone LLC, priority 2004, dated 2012).

One test relates to HT-29 cells. Nature of the test: Migration through membrane insert. The format is cell-based, human. The note with it: 66 nM antibody, 10 ng/mL VEGF-A or 50 ng/mL VEGF-B, 48 hours, p<0.05, FIG. 23. As to the method: HT-29 cells (2.5×1 10^4) or SW480 cells (1.5×1 10^4) were incubated in medium containing 1% FBS with the anti-VEGFR-1 antibody 18F1 (66 nM) in the upper surface of a 24 well MATRIGEL™ coated (HT-29) or uncoated (SW480) 8.0-μm pore size membrane insert (Becton Dickinson Labware, Bedford, Mass.). The inserts were placed into lower chambers containing 10 ng/mL VEGF-A (R&D Systems) or 50 ng/mL VEGF-B (R&D Systems) for 48 hours. Cells remaining in the top chamber of the inserts were removed with a cotton swab. Cells migrating to the underside of the inserts were stained with Diff-Quik (Harleco, Gibbstown, N.J.) and counted in ten random fields at 100× magnification. Statistical analysis was performed using InStat Statistical Software (V2.03, GraphPad Software, San Diego, Calif.).

For a further test, the system named is DU4475 xenograft. As to the kind of experiment: DU4475 breast tumor xenograft. The format is in vivo, mouse. How it is done:
Athymic nude mice (Charles River Laboratories, Wilmington, Mass.) were injected subcutaneously in the left flank area with 2×10^6 of DU4475 cells or 5×10^6 of MDA-MB-231 and MDA-MB-435 cells mixed in Matrigel (Collaborative Research Biochemicals. Bedford, Mass.). In the DU4475 and MDA-MB-231 models, tumors were allowed to reach approximately 200 mm^3 in size and then mice were randomized into groups of 12-16 animals per group. Animals received i.p. administration of the anti-VEGFR-I antibody clones 6F9, 15F11, or 18F1 at a dose of 0.5 mg (MDA-MB-231) or 1 mg (DU4475) three times each week. In the MDA-MB-435 model, the tumor cells were implanted subcutaneously into mammary fat pad area in the mouse. After tumors grew to reach approximately 200 mm^3 in size, mice were randomized into groups of 15 animals per group and intraperitoneally administered with 0.5 mg per dose of 18F1 antibody three times each week. Mice in control groups received an equal volume of saline solution. Treatment of animals was continued for the duration of the experiment. Tumors were measured twice each week with calipers. Tumor volumes were calculated using the formula [π/6 (w1×w2×w2)], where “w1” represents the largest tumor diameter and “w2” represents the smallest tumor diameter. Female athymic nu/nu mice, 6-8 weeks of age, were injected subcutaneously on the lateral dorsal surface with 0.4 mL volume of a suspension containing a human tumor cell line in media, diluted 1:1 with MATRIGEL™ (BD Biosciences). The cell lines used in xenograft models, with the cell doses indicated in parenthesis (10^6 cells/mouse), were: human colon carcinoma cell lines DLD-I (5), GEO (5) and HT-29 (5); human breast carcinoma cell lines DU4475 (2), MDA-MB-231 (5), MDA-MB-435 (5), and BT474 (5). When tumors reached approximately 200-300 mm^3, mice were randomized by tumor size and divided into treatment groups. Tumor growth was evaluated approximately twice weekly, with tumor volume calculated as π/6* (Length*Width^2), where Length=longest diameter and Width=diameter perpendicular to Length. Tumor dimensions were measured with calipers. T/C % was calculated as 100*(Final Treatment Tumor Volume/Initial Treatment Tumor Volume)/(Final Control Tumor Volume/Initial Control Tumor Volume). 18F1 was diluted in 0.9% USP saline (Braun) or phosphate buffered saline (PBS) and administered intraperitoneally in a volume of 0.5 mL per mouse. The effect of treatment on tumor growth was analyzed using repeated measures analysis of variance (RM ANOVA), p<0.05 was considered significant. 18F1 was used in combination with an antibody to mouse VEGFR-I, MF1. […] AU treatments were administered i.p. The effect of treatments on tumor growth were analyzed using repeated measures analysis of variance (RM ANOVA), p<0.05 was considered significant.

Another test concerns the target huVEGFR-2-AP (Homo sapiens, UniProt P35968). As to the kind of experiment: Plate-bound receptor binding ELISA (Example 2B). The following applies: FIG. 32C, 100 ng/well. As to the method:
(§1) HuVEGFR-I-Fc, mouse VEGFR-I-AP (hnClone Systems) or huVEGFR-2-AP (ImClone Systems) (100 ng/well) was coated on 96 strip-well plates and blocked with 5% milk/PBS. The binding of 18F1 and other anti-human VEGFR-I antibodies or a rat anti-mouse VEGFR-I antibody, MF1 (ImClone Systems, ref. 18), to plate bound VEGFR-I or VEGFR-2 was evaluated as described for the hybridoma supernatant screening above, except that bound antibody was detected with a goat anti-human kappa-HRP antibody (Bio Source International, Camarillo, Calif.) for 18F1 and anti-human VEGFR-2 antibody ICl 1. or a goat anti-rat IgG-HRP antibody (BioSource International) for MF1.
(In general: In an ELISA, binding on a coated surface is turned into a signal by an enzyme label.)

A further test has as its target T1, HuVEGFR-I-Fc (Homo sapiens, UniProt P17948).
T1 construct: soluble recombinant VEGFR-I Fc (rhuVEGFR-1 Fc) proteins were purchased from (R&D Systems Inc); purchased R&D Systems Inc
Nature of the test: Plate-bound receptor binding ELISA (Example 2B). The note with it: FIG. 32A, 100 ng/well. As to the method: as §1

Sequence of huVEGFR-2-AP (P35968 20-764 limits assumed): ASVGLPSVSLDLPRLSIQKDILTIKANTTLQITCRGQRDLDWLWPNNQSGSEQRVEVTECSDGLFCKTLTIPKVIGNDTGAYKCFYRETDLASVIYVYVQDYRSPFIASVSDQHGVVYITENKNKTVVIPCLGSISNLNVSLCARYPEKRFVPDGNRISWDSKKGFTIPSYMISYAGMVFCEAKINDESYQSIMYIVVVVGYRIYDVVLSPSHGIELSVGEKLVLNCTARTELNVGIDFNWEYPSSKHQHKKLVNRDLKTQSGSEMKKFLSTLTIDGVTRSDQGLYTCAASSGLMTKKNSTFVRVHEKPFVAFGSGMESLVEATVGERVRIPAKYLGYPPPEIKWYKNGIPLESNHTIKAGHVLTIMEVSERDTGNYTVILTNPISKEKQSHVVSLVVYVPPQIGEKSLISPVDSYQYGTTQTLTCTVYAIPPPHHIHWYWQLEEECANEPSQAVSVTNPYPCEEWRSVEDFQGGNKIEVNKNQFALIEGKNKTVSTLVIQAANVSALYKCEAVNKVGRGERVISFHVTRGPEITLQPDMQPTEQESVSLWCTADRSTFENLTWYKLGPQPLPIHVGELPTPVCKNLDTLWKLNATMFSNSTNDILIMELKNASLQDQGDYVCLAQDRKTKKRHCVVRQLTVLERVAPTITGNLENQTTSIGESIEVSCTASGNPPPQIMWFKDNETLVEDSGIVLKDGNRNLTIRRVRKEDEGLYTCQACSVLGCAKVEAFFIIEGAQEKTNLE
T1 sequence (P17948 27-758 limits assumed): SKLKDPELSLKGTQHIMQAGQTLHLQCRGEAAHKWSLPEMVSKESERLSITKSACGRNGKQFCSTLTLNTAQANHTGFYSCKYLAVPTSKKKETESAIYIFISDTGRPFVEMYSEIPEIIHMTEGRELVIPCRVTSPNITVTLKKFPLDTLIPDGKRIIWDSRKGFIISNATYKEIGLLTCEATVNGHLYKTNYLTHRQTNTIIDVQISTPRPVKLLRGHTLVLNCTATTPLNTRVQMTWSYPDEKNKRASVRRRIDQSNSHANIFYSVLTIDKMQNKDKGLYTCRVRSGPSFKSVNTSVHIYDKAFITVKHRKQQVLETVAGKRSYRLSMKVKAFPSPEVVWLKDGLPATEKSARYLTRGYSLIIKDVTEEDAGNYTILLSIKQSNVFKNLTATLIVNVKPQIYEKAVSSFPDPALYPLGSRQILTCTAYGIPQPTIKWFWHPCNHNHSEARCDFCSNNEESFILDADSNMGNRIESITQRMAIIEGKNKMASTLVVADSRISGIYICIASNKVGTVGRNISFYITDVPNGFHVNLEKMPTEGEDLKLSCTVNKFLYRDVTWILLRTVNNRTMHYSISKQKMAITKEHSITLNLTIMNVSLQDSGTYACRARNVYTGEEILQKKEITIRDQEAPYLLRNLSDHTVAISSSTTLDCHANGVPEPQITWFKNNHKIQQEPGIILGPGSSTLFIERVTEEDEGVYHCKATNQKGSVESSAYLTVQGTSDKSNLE

Take “18F1: human anti-VEGFR-1 monoclonal antibody clone; VL SEQ ID NO: 16, VH SEQ ID NO: 20 [Clone 18F1]”: the “VEGFR-I ligand induced migration” value with HT-29 cells is “completely blocked”. For the same substance, the “tumor growth of the DU4475 xenograft” value in the test on DU4475 xenograft (1 mg per dose three times each week i.p., p<0.05, FIGS. 19A-B) was “statistically significant suppression”; with DU4475 xenograft (0.5 or 1 mg per dose three times each week, ANOVA p<0.05, FIG. 20A), “statistically significant suppression”. Also, in the test on DU4475 xenograft (Example 9, intraperitoneal, p<0.05, FIG. 25A), the “growth of DU4475 xenograft tumors” value was “significantly (p<0.05) suppressed”. Further, in the test on DU4475 xenograft (Example 11, p<0.05, FIG. 28B), the “tumor growth inhibition, DU4475 xenograft” value is on record as “significant tumor growth inhibition”. In addition, in the test with huVEGFR-2-AP, the “reactivity with human VEGFR-2” value is listed as “no cross reactivity”. For the same substance, in the test with HuVEGFR-I-Fc, the “reactivity with human VEGFR-I” value was “specific reactivity”.
